Results published in US20050009840A1 (SUGEN, INC., priority 2003, published 2005).

Molecular target: T1, HGFR (Homo sapiens, UniProt P08581)
T1 construct: purchased Upstate 14-526
Assay: HGFR continuous-coupled spectrophotometric assay
Format: biochemical
Settings: at 1 pM; Table 7, library procedure 42; read-out: % Inhibition (percent c-MET inhibition)

T1 sequence (P08581 974-1390 limits assumed): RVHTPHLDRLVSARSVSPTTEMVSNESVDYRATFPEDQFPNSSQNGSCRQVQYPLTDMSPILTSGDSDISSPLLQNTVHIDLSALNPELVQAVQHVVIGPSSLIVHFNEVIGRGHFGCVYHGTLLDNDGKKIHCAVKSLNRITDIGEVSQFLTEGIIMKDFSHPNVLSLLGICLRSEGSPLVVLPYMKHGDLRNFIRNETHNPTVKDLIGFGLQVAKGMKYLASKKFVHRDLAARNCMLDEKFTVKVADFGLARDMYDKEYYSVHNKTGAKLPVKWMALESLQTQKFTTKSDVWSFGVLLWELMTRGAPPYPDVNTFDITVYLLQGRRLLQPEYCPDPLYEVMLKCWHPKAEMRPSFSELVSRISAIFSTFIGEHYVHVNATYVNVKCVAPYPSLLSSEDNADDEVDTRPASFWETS

inhibition at 1 pM [%]	Compound
19	Nc1ncc(-c2ccc(C(=O)N3CCC(N4CCCC4)CC3)cc2)cc1OCc1ccc(F)c(F)c1
32	CC(C)c1ccc(COc2cc(-c3ccc(C(=O)N4CCC(N5CCCC5)CC4)cc3)cnc2N)cc1
22	Nc1ncc(-c2ccc(C(=O)N3CCC(N4CCCC4)CC3)cc2)cc1OCc1ccccc1-c1ccccc1
20	Nc1ncc(-c2ccc(C(=O)N3CCC(N4CCCC4)CC3)cc2)cc1OCc1ccc(OC(F)(F)F)cc1
14	Nc1ncc(-c2ccc(C(=O)N3CCC(N4CCCC4)CC3)cc2)cc1OCc1cc(F)cc(F)c1
24	Nc1ncc(-c2ccc(C(=O)N3CCC(N4CCCC4)CC3)cc2)cc1OCc1cccc(F)c1F
10	COc1ccc(-c2nc(COc3cc(-c4ccc(C(=O)N5CCC(N6CCCC6)CC5)cc4)cnc3N)no2)cc1
10	COc1cc(COc2cc(-c3ccc(C(=O)N4CCC(N5CCCC5)CC4)cc3)cnc2N)cc(OC)c1OC
19	Nc1ncc(-c2ccc(C(=O)N3CCC(N4CCCC4)CC3)cc2)cc1OCc1cc(Cl)cc(Cl)c1
34	Nc1ncc(-c2ccc(C(=O)N3CCC(N4CCCC4)CC3)cc2)cc1OCc1cccc(Oc2ccccc2)c1
40	Nc1ncc(-c2ccc(C(=O)N3CCC(N4CCCC4)CC3)cc2)cc1OCc1cccc(Cl)c1Cl
26	Cc1ccc(COc2cc(-c3ccc(C(=O)N4CCC(N5CCCC5)CC4)cc3)cnc2N)cc1Cl
26	Nc1ncc(-c2ccc(C(=O)N3CCC(N4CCCC4)CC3)cc2)cc1OCc1cc(Cl)ccc1Cl
9	Nc1ncc(-c2ccc(C(=O)N3CCC(N4CCCC4)CC3)cc2)cc1OCc1nc(CS(=O)(=O)c2ccccn2)no1
14	Nc1ncc(-c2ccc(C(=O)N3CCC(N4CCCC4)CC3)cc2)cc1OCc1cc(-c2c(Cl)cccc2Cl)no1
9	CC(=O)N(c1ccc(C)cc1)c1nc(COc2cc(-c3ccc(C(=O)N4CCC(N5CCCC5)CC4)cc3)cnc2N)cs1
10	CC(Oc1cc(-c2ccc(C(=O)N3CCC(N4CCCC4)CC3)cc2)cnc1N)c1ccccc1 (centres unmarked)
13	Nc1ncc(-c2ccc(C(=O)N3CCC(N4CCCC4)CC3)cc2)cc1OCc1cccc(OC(F)(F)F)c1
8	Cc1cc(COc2cc(-c3ccc(C(=O)N4CCC(N5CCCC5)CC4)cc3)cnc2N)nc(-c2ccc(C(F)(F)F)cn2)n1
24	Nc1ncc(-c2ccc(C(=O)N3CCC(N4CCCC4)CC3)cc2)cc1OCc1cc(F)ccc1Br
14	Cc1cc(C)cc(COc2cc(-c3ccc(C(=O)N4CCC(N5CCCC5)CC4)cc3)cnc2N)c1
15	COc1cccc(COc2cc(-c3ccc(C(=O)N4CCC(N5CCCC5)CC4)cc3)cnc2N)c1
15	Nc1ncc(-c2ccc(C(=O)N3CCC(N4CCCC4)CC3)cc2)cc1OCc1ccc(Cl)cc1
28	Nc1ncc(-c2ccc(C(=O)N3CCC(N4CCCC4)CC3)cc2)cc1OCc1cccc(Cl)c1F
26	Nc1ncc(-c2ccc(C(=O)N3CCC(N4CCCC4)CC3)cc2)cc1OCc1ccc(Cl)c(Cl)c1
12	Nc1ncc(-c2ccc(C(=O)N3CCC(N4CCCC4)CC3)cc2)cc1OCc1cc(F)c(F)cc1F

inhibition at 1 pM [%]	Compound
15	Nc1ncc(-c2ccc(C(=O)N3CCC(N4CCCC4)CC3)cc2)cc1OCc1ccc(F)c(F)c1F
12	Nc1ncc(-c2ccc(C(=O)N3CCC(N4CCCC4)CC3)cc2)cc1OCc1ccc(C(F)(F)F)cc1C(F)(F)F
30	Nc1ncc(-c2ccc(C(=O)N3CCC(N4CCCC4)CC3)cc2)cc1OCc1c(F)ccc(F)c1F
10	Nc1ncc(-c2ccc(C(=O)N3CCC(N4CCCC4)CC3)cc2)cc1OCc1ccc(C(F)(F)F)cc1
28	Cc1cccc(COc2cc(-c3ccc(C(=O)N4CCC(N5CCCC5)CC4)cc3)cnc2N)c1F
21	CC(Oc1cc(-c2ccc(C(=O)N3CCC(N4CCCC4)CC3)cc2)cnc1N)c1ccccc1C(F)(F)F (centres unmarked)
9	CC(=O)Nc1nc(COc2cc(-c3ccc(C(=O)N4CCC(N5CCCC5)CC4)cc3)cnc2N)cs1
11	Nc1ncc(-c2ccc(C(=O)N3CCC(N4CCCC4)CC3)cc2)cc1OCc1ccccc1CS(=O)(=O)c1ccccc1
4	Nc1ncc(-c2ccc(C(=O)N3CCC(N4CCCC4)CC3)cc2)cc1OC1OC(=O)c2ccccc21 (centres unmarked)
41	Nc1ncc(-c2ccc(C(=O)N3CCC(N4CCCC4)CC3)cn2)cc1OCc1ccc(-c2csnn2)cc1
21	Nc1ncc(-c2ccc(C(=O)N3CCN(C4CCCC4)CC3)cc2)cc1OCc1cc(F)cc2c1OCOC2
14	Nc1ncc(-c2ccc(C(=O)N3CCC(N4CCCC4)CC3)cc2)cc1OCc1cc(C(F)(F)F)cc(C(F)(F)F)c1
13	Nc1ncc(-c2ccc(C(=O)N3CCC(N4CCCC4)CC3)cc2)cc1OCc1ccc(F)c(C(F)(F)F)c1
12	Nc1ncc(-c2ccc(C(=O)N3CCC(N4CCCC4)CC3)cc2)cc1OCc1cc(F)cc(C(F)(F)F)c1
31	Nc1ncc(-c2ccc(C(=O)N3CCC(N4CCCC4)CC3)cc2)cc1OCc1c(F)cccc1C(F)(F)F
19	Nc1ncc(-c2ccc(C(=O)N3CCC(N4CCCC4)CC3)cc2)cc1OCc1cc(F)c(F)c(F)c1
27	Nc1ncc(-c2ccc(C(=O)N3CCC(N4CCCC4)CC3)cc2)cc1OCc1ccccc1OC(F)F
25	Nc1ncc(-c2ccc(C(=O)N3CCC(N4CCCC4)CC3)cc2)cc1OCc1ccc(C(F)(F)F)c(F)c1
31	Nc1ncc(-c2ccc(C(=O)N3CCC(N4CCCC4)CC3)cc2)cc1OCc1ccc(Br)cc1F
45	Nc1ncc(-c2ccc(C(=O)N3CCC(N4CCCC4)CC3)cc2)cc1OCc1cc(Br)cc(Br)c1
11	CS(=O)(=O)c1ccc(COc2cc(-c3ccc(C(=O)N4CCC(N5CCCC5)CC4)cc3)cnc2N)cc1
77	N#Cc1ccccc1-c1ccc(COc2cc(-c3ccc(C(=O)N4CCC(N5CCCC5)CC4)cc3)cnc2N)cc1
11	Nc1ncc(-c2ccc(C(=O)N3CCC(N4CCCC4)CC3)cc2)cc1OCc1ccc(C(=O)NCCN2CCOCC2)cc1
9	CN(C)CCNC(=O)c1ccc(COc2cc(-c3ccc(C(=O)N4CCC(N5CCCC5)CC4)cc3)cnc2N)cc1
12	Nc1ncc(-c2ccc(C(=O)N3CCC(N4CCCC4)CC3)cc2)cc1OCc1ccc(C(=O)N2CCNC(c3ccccc3)C2)cc1 (centres unmarked)
7	Nc1ncc(-c2ccc(C(=O)N3CCC(N4CCCC4)CC3)cc2)cc1OCc1ccc(C(=O)NCc2ccccn2)cc1

inhibition at 1 pM [%]	Compound
10	Nc1ncc(-c2ccc(C(=O)N3CCC(N4CCCC4)CC3)cc2)cc1OCc1cccc(C(=O)Nc2cccnc2)c1
14	Nc1ncc(-c2ccc(C(=O)N3CCC(N4CCCC4)CC3)cc2)cc1OCc1cccc(C(=O)NCc2cccnc2)c1
10	Nc1ncc(-c2ccc(C(=O)N3CCC(N4CCCC4)CC3)cc2)cc1OCc1cccc(C(=O)NCc2ccncc2)c1
12	Nc1ncc(-c2ccc(C(=O)N3CCC(N4CCCC4)CC3)cc2)cc1OCc1cccc(C(=O)NCCc2ccccn2)c1
13	Nc1ncc(-c2ccc(C(=O)N3CCC(N4CCCC4)CC3)cc2)cc1OCc1cccc(C(=O)NC2CCN(Cc3ccccc3)C2)c1 (centres unmarked)
11	Nc1ncc(-c2ccc(C(=O)N3CCC(N4CCCC4)CC3)cc2)cc1OCc1ccc(C(=O)NCCc2ccccn2)cc1
10	Nc1ncc(-c2ccc(C(=O)N3CCC(N4CCCC4)CC3)cc2)cc1OCc1ccc(C(=O)NCCN2CCCC2)cc1
11	Nc1ncc(-c2ccc(C(=O)N3CCC(N4CCCC4)CC3)cc2)cc1OCc1ccc(C(=O)NCCCN2CCCC2=O)cc1
13	Nc1ncc(-c2ccc(C(=O)N3CCC(N4CCCC4)CC3)cc2)cc1OCc1cccc(C(=O)NC2CCN(Cc3ccccc3)CC2)c1
11	Nc1ncc(-c2ccc(C(=O)N3CCC(N4CCCC4)CC3)cc2)cc1OCc1ccc(C(=O)NC2CCN(Cc3ccccc3)CC2)cc1
10	CCN1CCCC1CNC(=O)c1cccc(COc2cc(-c3ccc(C(=O)N4CCC(N5CCCC5)CC4)cc3)cnc2N)c1 (centres unmarked)
18	CCN1CCCC1CNC(=O)c1ccc(COc2cc(-c3ccc(C(=O)N4CCC(N5CCCC5)CC4)cc3)cnc2N)cc1 (centres unmarked)
23	CN(C)c1ccc(NC(=O)c2cccc(COc3cc(-c4ccc(C(=O)N5CCC(N6CCCC6)CC5)cc4)cnc3N)c2)cc1
47	CCN(CC)c1ccc(NC(=O)c2ccc(COc3cc(-c4ccc(C(=O)N5CCC(N6CCCC6)CC5)cc4)cnc3N)cc2)cc1
15	Nc1ncc(-c2ccc(C(=O)N3CCC(N4CCCC4)CC3)cc2)cc1OCc1ccc(C(=O)NCc2cccnc2)cc1
24	Nc1ncc(-c2ccc(C(=O)N3CCC(N4CCCC4)CC3)cc2)cc1OCc1ccc(C(=O)NC2CCN(Cc3ccccc3)C2)cc1 (centres unmarked)
32	Nc1ncc(-c2ccc(C(=O)N3CCC(N4CCCC4)CC3)cc2)cc1OCc1cccc(C(=O)Nc2ccc(N3CCCCC3)cc2)c1
19	CC(C)Oc1cc(C(F)(F)F)nc2ccc(COc3cc(-c4ccc(C(=O)N5CCC(N6CCCC6)CC5)cc4)cnc3N)cc12
21	Nc1ncc(-c2ccc(C(=O)N3CCC(N4CCCC4)CC3)cc2)cc1OCc1csc(-c2ccc(C(F)(F)F)cc2)n1
59	Nc1ncc(-c2ccc(C(=O)N3CCC(N4CCCC4)CC3)cc2)cc1OCc1ccc2ccccc2c1Br
20	CN(C)CCNC(=O)c1cccc(COc2cc(-c3ccc(C(=O)N4CCC(N5CCCC5)CC4)cc3)cnc2N)c1
26	Nc1ncc(-c2ccc(C(=O)N3CCC(N4CCCC4)CC3)cc2)cc1OCc1cc(C(F)(F)F)ccc1Cl
26	Nc1ncc(-c2ccc(C(=O)N3CCC(N4CCCC4)CC3)cc2)cc1OCc1cc(F)ccc1C(F)(F)F
21	Nc1ncc(-c2ccc(C(=O)N3CCC(N4CCCC4)CC3)cc2)cc1OCc1ccccc1OC(F)(F)F
16	CCOC(=O)C1CCN(C(=O)c2ccc(COc3cc(-c4ccc(C(=O)N5CCC(N6CCCC6)CC5)cc4)cnc3N)cc2)CC1
